Literature values, collected in patent US20050197342A1, “Substituted nitrogen-containing six-membered amino-heterocycles as vanilloid-1 receptor antagonists for treating pain” (priority 2003, published 2005).

Target: VR1 (Rattus norvegicus, UniProt O35433)
Details: Wahl et al., Mol. Pharmacol., 59:9, 2001

VR1, sequence (O35433 whole entry): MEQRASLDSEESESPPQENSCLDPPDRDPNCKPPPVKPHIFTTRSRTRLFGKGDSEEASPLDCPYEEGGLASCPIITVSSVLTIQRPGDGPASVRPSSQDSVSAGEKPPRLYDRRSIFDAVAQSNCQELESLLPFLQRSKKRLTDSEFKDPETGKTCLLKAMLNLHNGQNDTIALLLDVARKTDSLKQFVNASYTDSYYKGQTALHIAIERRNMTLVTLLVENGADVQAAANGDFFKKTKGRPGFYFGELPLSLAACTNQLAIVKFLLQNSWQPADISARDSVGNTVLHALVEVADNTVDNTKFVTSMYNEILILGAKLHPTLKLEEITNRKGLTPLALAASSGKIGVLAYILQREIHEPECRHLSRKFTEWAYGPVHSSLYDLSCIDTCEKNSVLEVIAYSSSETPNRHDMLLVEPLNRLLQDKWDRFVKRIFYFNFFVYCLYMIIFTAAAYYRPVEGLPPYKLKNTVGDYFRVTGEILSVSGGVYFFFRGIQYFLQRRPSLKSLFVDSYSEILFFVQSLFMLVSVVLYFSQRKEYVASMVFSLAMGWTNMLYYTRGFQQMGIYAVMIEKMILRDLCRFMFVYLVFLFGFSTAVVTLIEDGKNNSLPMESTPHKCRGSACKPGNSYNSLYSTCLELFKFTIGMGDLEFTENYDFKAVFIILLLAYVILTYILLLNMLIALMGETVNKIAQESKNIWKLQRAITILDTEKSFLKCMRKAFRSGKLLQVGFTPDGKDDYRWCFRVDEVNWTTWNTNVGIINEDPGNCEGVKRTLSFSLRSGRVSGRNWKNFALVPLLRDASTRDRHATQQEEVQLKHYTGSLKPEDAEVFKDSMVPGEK

C=C(C)[C@]12C[C@@H](C)[C@@]34O[C@](Cc5ccccc5)(O[C@@H]1[C@@H]3C=C(COC(=O)Cc1cc(I)c(O)c(OC)c1)C[C@]1(O)C(=O)C(C)=C[C@@H]41)O2 [Iodo-resiniferatoxin]
antagonist of VR1: nanomolar antagonist
